The supplement of paper PMC10307832

What was measured:
Test in all cases: relative viability (nuclei count vs DMSO), 5 days (fraction); higher = more cells survive
Afatinib = compound: CN(C)C/C=C/C(=O)Nc1cc2c(Nc3ccc(F)c(Cl)c3)ncnc2cc1O[C@H]1CCOC1 [Afatinib]
Outline: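 Viability was defined as treated-well nuclei divided by vehicle-well nuclei, with the median taken over replicate plates. Cells from lung cancer lines sat overnight at 37 °C in 1536-well plates, received five √10-spaced library-drug doses by pinning on vehicle-anchored plates, and grew 5 days without medium change before one-step fixation, permeabilisation and Hoechst staining, 4× imaging and MetaXpress nuclear counts. Only plates with control CV under 25% and at least one doubling were kept.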

Afatinib + Navitoclax = compound: CN(C)C/C=C/C(=O)Nc1cc2c(Nc3ccc(F)c(Cl)c3)ncnc2cc1O[C@H]1CCOC1 [Afatinib] + CC1(C)CCC(c2ccc(Cl)cc2)=C(CN2CCN(c3ccc(C(=O)NS(=O)(=O)c4ccc(N[C@H](CCN5CCOCC5)CSc5ccccc5)c(S(=O)(=O)C(F)(F)F)c4)cc3)CC2)C1 [Navitoclax] (partner 0.5 µM)
Outline: (§1)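 The day after seeding in 1536-well plates, lung cancer cell lines were treated by pin tool with a single drug, or with a fixed anchor-drug dose together with five library-drug doses (not always all listed) in √10 steps. After 5 days, a combined fix-and-stain solution (final 0.05% Triton X-100, 1% formaldehyde, 1 ug/ml Hoechst) was added. Nuclei counted on 4× images gave relative viability as treated counts over vehicle counts, reported as the median of duplicate plates.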

Afatinib + Tozasertib = compound: CN(C)C/C=C/C(=O)Nc1cc2c(Nc3ccc(F)c(Cl)c3)ncnc2cc1O[C@H]1CCOC1 [Afatinib] + Cc1cc(Nc2cc(N3CCN(C)CC3)nc(Sc3ccc(NC(=O)C4CC4)cc3)n2)n[nH]1 [Tozasertib] (partner 0.1 µM)
Outline: as §1

Afatinib + Phenformin = compound: CN(C)C/C=C/C(=O)Nc1cc2c(Nc3ccc(F)c(Cl)c3)ncnc2cc1O[C@H]1CCOC1 [Afatinib] + N=C(N)NC(=N)NCCc1ccccc1 [Phenformin] (partner 250 µM)
Outline: as §1

Row | Cell Line | relative viability (Afatinib; 0.005 µM) | relative viability (Afatinib; 0.05 µM) | relative viability (Afatinib; 0.1581 µM) | relative viability (Afatinib; 0.5 µM) | relative viability (Afatinib + Navitoclax; first compound 0.005 µM) | relative viability (Afatinib + Navitoclax; first compound 0.05 µM) | relative viability (Afatinib + Navitoclax; first compound 0.1581 µM) | relative viability (Afatinib + Navitoclax; first compound 0.5 µM) | relative viability (Afatinib + Tozasertib; first compound 0.005 µM) | relative viability (Afatinib + Tozasertib; first compound 0.05 µM) | relative viability (Afatinib + Tozasertib; first compound 0.1581 µM) | relative viability (Afatinib + Tozasertib; first compound 0.5 µM) | relative viability (Afatinib + Phenformin; first compound 0.005 µM) | relative viability (Afatinib + Phenformin; first compound 0.05 µM) | relative viability (Afatinib + Phenformin; first compound 0.1581 µM) | relative viability (Afatinib + Phenformin; first compound 0.5 µM) | relative viability (Afatinib; 0.01581 µM) | relative viability (Afatinib + Navitoclax; first compound 0.01581 µM) | relative viability (Afatinib + Tozasertib; first compound 0.01581 µM) | relative viability (Afatinib + Phenformin; first compound 0.01581 µM)
1 | NCI-H1650 | 0.755 | 0.896 | 0.696 | 0.736 | 0.979 | 1.25 | 0.962 | 1.22 | 0.409 | 0.408 | 0.313 | 0.343 | 0.368 | 0.351 | 0.308 | 0.308 |  |  |  | 
2 | NCI-H1651 | 1.07 | 0.941 | 0.961 | 0.915 | 1.18 | 1.08 | 0.949 | 0.941 | 0.718 | 0.727 | 0.591 | 0.609 | 0.368 | 0.288 | 0.329 | 0.332 | 0.949 | 0.989 | 0.748 | 0.333
3 | NCI-H1666 | 0.95 | 0.75 | 0.707 | 0.801 | 0.887 | 0.583 |  | 0.389 | 0.673 | 0.596 | 0.519 | 0.551 | 0.572 | 0.607 | 0.555 | 0.567 | 0.894 | 0.748 | 0.621 | 0.553
4 | NCI-H1734 | 0.998 | 1.02 | 0.968 | 1.03 | 1.01 | 0.885 | 0.78 | 0.781 | 0.253 | 0.269 | 0.289 | 0.26 | 0.419 | 0.412 | 0.351 | 0.405 | 0.979 | 0.877 | 0.255 | 0.383
5 | NCI-H1755 | 0.997 | 1.05 | 1 | 1.02 | 0.957 | 1.08 | 0.995 | 0.987 | 0.522 | 0.59 | 0.554 | 0.566 | 0.677 | 0.823 | 0.578 | 0.617 | 0.983 | 0.981 | 0.499 | 0.663
6 | NCI-H1793 | 0.829 | 0.558 | 0.418 | 0.536 | 0.404 | 0.356 | 0.357 | 0.32 | 0.315 | 0.252 | 0.147 | 0.242 | 0.244 | 0.325 | 0.273 | 0.321 | 0.616 | 0.348 | 0.377 | 0.316
7 | NCI-H1915 | 1.06 | 1 | 0.973 | 0.922 | 0.795 | 0.779 | 0.813 | 0.778 | 0.522 | 0.414 | 0.427 | 0.419 | 0.389 | 0.363 | 0.378 | 0.33 | 0.988 | 0.763 | 0.46 | 0.379
8 | NCI-H1944 | 0.916 | 0.794 | 0.575 | 0.73 | 1.04 | 0.903 | 0.668 | 0.765 | 0.234 | 0.216 | 0.195 | 0.208 | 0.19 | 0.188 | 0.174 | 0.166 | 0.906 | 0.959 | 0.247 | 0.195
9 | NCI-H1975 | 0.945 | 0.79 | 0.479 | 0.336 | 1.19 | 1.24 | 0.488 | 0.624 | 0.7 | 0.641 | 0.268 | 0.218 | 0.444 | 0.373 | 0.223 | 0.166 | 0.851 | 1.14 | 0.702 | 0.413
10 | NCI-H1993 | 0.935 | 0.84 | 0.776 | 0.692 | 0.674 | 0.735 | 0.788 | 0.704 | 0.556 | 0.601 | 0.617 | 0.549 | 0.596 | 0.656 | 0.639 | 0.589 | 0.75 | 0.722 | 0.582 | 0.645
11 | NCI-H2009 | 1.04 | 1.06 | 0.997 | 1.06 | 1.19 | 1.27 | 1.15 | 1.18 | 0.856 | 0.789 | 0.713 | 0.732 | 0.515 | 0.545 | 0.424 | 0.445 | 0.998 | 1.12 | 0.785 | 0.481
12 | NCI-H2023 | 0.968 | 0.898 | 0.882 | 0.886 | 1.01 | 0.876 | 0.792 | 0.854 | 0.422 | 0.366 | 0.169 | 0.248 | 0.436 | 0.412 | 0.291 | 0.375 | 0.85 | 1.01 | 0.377 | 0.382
13 | NCI-H2085 | 0.99 | 0.856 | 0.757 | 0.858 | 0.985 | 0.994 | 0.808 | 0.936 | 0.795 | 0.721 | 0.619 | 0.619 | 0.614 | 0.606 | 0.509 | 0.542 | 0.958 | 1.03 | 0.754 | 0.629
14 | NCI-H2087 | 1.06 | 1.04 | 0.998 | 0.895 | 0.996 | 1.11 | 0.837 | 0.925 | 0.232 | 0.267 | 0.229 | 0.202 | 0.454 | 0.446 | 0.446 | 0.373 | 0.857 | 0.957 | 0.25 | 0.475
15 | NCI-H2126 | 1.01 | 0.816 | 0.679 | 0.693 | 0.836 | 0.829 | 0.441 | 0.411 | 0.852 | 0.668 | 0.571 | 0.632 | 0.584 | 0.485 | 0.434 | 0.483 | 0.932 | 0.854 | 0.813 | 0.509
16 | NCI-H2170 | 0.907 | 0.445 | 0.276 | 0.253 | 0.481 | 0.284 | 0.187 | 0.2 | 0.651 | 0.355 | 0.221 | 0.203 | 0.368 | 0.335 | 0.216 | 0.208 | 0.837 | 0.454 | 0.574 | 0.383
